This note sets out measurements from US11319318B2, “Pyridinones and isoquinolinones as inhibitors of the bromodomain BRD9” (Boehringer Ingelheim International GmbH, priority 2015, dated 2022).

In this assay the target is T1, bromodomain of BRD9 (GST-BRD9 aa 130-259) / H3 K9/14/18/23Ac(1-28) peptide (Homo sapiens, UniProt Q9H8M2).
T1 construct: The protein corresponding to amino acids 130-259 that contains the bromodomain of BRD9; made in house; host or cells: E. coli
T1 sequence (Q9H8M2 130-259): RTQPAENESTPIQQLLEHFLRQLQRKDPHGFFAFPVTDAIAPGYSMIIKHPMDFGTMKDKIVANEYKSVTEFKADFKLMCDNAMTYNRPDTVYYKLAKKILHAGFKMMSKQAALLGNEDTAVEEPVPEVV
Briefly: BRD9-H3 tetra-acetylated Peptide Inhibition AlphaScreen. It counts as binding. For orientation: In Alpha technology, singlet oxygen from a donor bead excites a nearby acceptor bead.

pIC50: −log10 of the molar value.

Description: Biological Methods BRD9-H3 tetra-acetylated Peptide Inhibition AlphaScreen
This assay is used to identify compounds which inhibit the interaction of the bromodomain of BRD9 with a tetra-acetylated peptide based on the sequence of histone H3 (H3 K9/14/18/23Ac (1-28)).
AlphaScreen Beads (Perkin Elmer):
AlphaLISA Glutathione Acceptor Beads
AlphaScreen Streptavidin Donor Beads
The assay is done in a darkened room below 100 Lux.
Compounds are dispensed onto assay plates using an Access Labcyte Workstation with the Labcyte Echo 550 from a DMSO solution. For the chosen highest concentration of 100 μM, 150 nl of compound solution are transferred from a 10 mM DMSO solution. […] DMSO is added such that every well has a total of 150 nl of DMSO.
After 60 min at room temperature the signal is measured in a PerkinElmer Envision HTS Multilabel Reader using the AlphaScreen specifications from PerkinElmer.
Each plate contains negative controls where biotinylated H3 K9/14/18/23Ac(1-28) peptide and GST-BRD9 are left out and replaced by assay buffer. Negative control values are entered as low basis value when using the software GraphPad Prism for calculations.

By pIC50 is commonly meant the negative decadic logarithm of the IC50, by convention in mol/L. Low readings indicate a large IC50, high ones a small IC50. `Cc1cc(-c2cc(C)c(=O)n(C)c2)ccc1CN` [Compound I-92] had a pIC50 of 5.98. `Cc1cc(-c2ccc(C3(N4CCN(C)CC4)CC3)cc2)cn(C)c1=O` [Compound I-95] showed a pIC50 of 5.92.

The molecule `COc1cc(-c2cc(C)c(=O)n(C)c2)ccc1CN` [Compound I-96] showed a pIC50 of 5.90.

Molecule `Cc1cc(-c2cccc(C3CCCCN3)c2)cn(C)c1=O` (stereo not drawn) [Compound I-98] showed a pIC50 of 5.63. This pIC50 is 0.27 log units lower than that of the molecule before. The value for `COc1cc(-c2cn(C)c(=O)c(C)c2C)cc(OC)c1CN1CC(O)C1` [Compound I-103] was 7.43; that for `COc1cc(-c2cn(C)c(=O)c(C)c2C)c(OC)cc1CN1CC(O)C1` [Compound I-104] was 7.41. The same measure for `Cc1c(-c2ccc3c(c2)CNC3)cn(C)c(=O)c1C` [Compound I-106]: 6.99; for `COCc1c(OC)cc(-c2cn(C)c(=O)c(C)c2C)cc1OC` [Compound I-107]: 6.86.

Take `COc1cc(-c2cn(C)c(=O)c(C)c2C)ccc1CN1C[C@@H]2CC1CN2C` [Compound I-108]: the pIC50 was 6.82. This pIC50 and that of the molecule before are within 0.2 log units of each other. The value for `COc1cc(-c2cn(C)c(=O)c(C)c2C)ccc1CN1C[C@@H]2CC1CN2` [Compound I-109] was 6.71. The same measure for `COc1cc(S(=O)(=O)N(C)CCN(C)C)c(OC)cc1-c1cn(C)c(=O)c(C)c1C` [Compound I-110]: 6.71; for `COc1cc(-c2cn(C)c(=O)c(C)c2C)ccc1C1(N2CCN(C)CC2)CC1` [Compound I-111]: 6.65; for `Cc1cc(-c2cn(C)c(=O)c(C)c2C)ccc1C1(N2CCN(C)CC2)CC1` [Compound I-112]: 6.49. `COc1cc(-c2cn(C)c(=O)c(C)c2C)ccc1CN1C[C@H]2C[C@@H]1CN2C` [Compound I-113] gave a pIC50 of 6.46. The value for `Cc1c(-c2ccc(C(=O)C3CCNCC3)cc2)cn(C)c(=O)c1C` [Compound I-115] was 6.13; that for `Cc1c(-c2ccc3c(c2)CCNC3)cn(C)c(=O)c1C` [Compound I-116] was 6.13; that for `Cc1cc(-c2cn(C)c(=O)c(C)c2C)ccc1C(=O)N1CCN(C)CC1` [Compound I-117] was 5.85. The value for `COc1cc(-c2cc(C)c(=O)n(C)c2C)cc(OC)c1CN1CC(O)C1` [Compound I-118] was 8.00; that for `COc1cc(-c2cc(C)c(=O)n(C)c2C)ccc1CN1CC(O)C1` [Compound I-119] was 7.26; that for `COc1cc(-c2cc(C)c(=O)n(C)c2C)ccc1C1(N(C)C)CCC1` [Compound I-121] was 6.79. The value for `COc1cc(-c2cc(C)c(=O)n(C)c2C)ccc1C1(N(C)C)CC1` [Compound I-122] was 6.94; that for `COc1cc(-c2cc(C)c(=O)n(C)c2C)cc(OC)c1CN1CCNCC1` [Compound I-124] was 6.84; that for `COc1cc(S(=O)(=O)N(C)CCN(C)C)c(OC)cc1-c1cc(C)c(=O)n(C)c1C` [Compound I-125] was 6.78. Turning to `Cc1cc(-c2ccc3c(c2)CNC3)c(C)n(C)c1=O` [Compound I-126], the pIC50 is 6.78. The value for `COc1cc(-c2cc(C)c(=O)n(C)c2C)ccc1CN1C[C@@H]2CC1CN2` [Compound I-127] was 6.70.

Take `COc1cc(-c2cc(C)c(=O)n(C)c2C)ccc1CN1C[C@H]2C[C@@H]1CN2C` [Compound I-128]: the pIC50 is 6.65. The value for `Cc1cc(-c2ccc(C(=O)C3CCNCC3)cc2)c(C)n(C)c1=O` [Compound I-129] was 6.55; that for `COCc1c(OC)cc(-c2cc(C)c(=O)n(C)c2C)cc1OC` [Compound I-130] was 6.52. Molecule `COc1cc(-c2cc(C)c(=O)n(C)c2C)c(OC)cc1CN1CCN(C)CC1` [Compound I-131] had a pIC50 of 6.52. The value for `COc1cc(-c2cc(C)c(=O)n(C)c2C)cc(OC)c1CN1CCN(C)CC1` [Compound I-132] was 6.49; that for `COc1cc(-c2cc(C)c(=O)n(C)c2C)ccc1CN1C[C@@H]2CC1CN2C` [Compound I-133] was 6.41. With `COc1cc(-c2cc(C)c(=O)n(C)c2C)ccc1CN1CC(OC)C1` [Compound I-134], the pIC50 is 6.40.

Turning to `Cc1cc(-c2cc(C)c(=O)n(C)c2C)ccc1C1(N2CCN(C)CC2)CC1` [Compound I-135], the negative-log IC50 (pIC50) is 6.07. The value for `Cc1cc(-c2cc(C)c(=O)n(C)c2C)ccc1C(=O)N1CCN(C)CC1` [Compound I-136] was 5.72; that for `Cc1c(-c2ccc(CN)cc2)cn(C)c(=O)c1C` [Compound I-137, 5-(4-Aminomethyl-phenyl)-1,3,4-trimethyl-1H-pyridin-2-one] was 6.08. The value for `Cc1c(-c2ccc([C@H](C)N)cc2)cn(C)c(=O)c1C` [Compound I-138] was 5.90. The same measure for `Cc1c(-c2ccc([C@@H](C)N)cc2)cn(C)c(=O)c1C` [Compound I-139]: 5.86; for `Cc1cc(-c2ccc(CN)cc2)c(C)n(C)c1=O` [Compound I-140]: 6.06.

In turn, `Cc1cc(-c2ccc([C@@H](C)N)cc2)c(C)n(C)c1=O` [Compound I-141] had a pIC50 of 5.73. The same measure for `Cc1cc(-c2ccc([C@H](C)N)cc2)c(C)n(C)c1=O` [Compound I-142]: 5.71. The same measure for `COc1cc(-c2cc(C)c(=O)n(C)c2)ccc1COC1CNC1` [Compound I-144]: 7.59. The same measure for `COc1cc(-c2cc(C)c(=O)n(C)c2)cc(OC)c1CNC1CNC1` [Compound I-145]: 7.49; for `CNC1CN(Cc2c(OC)cc(-c3cc(C)c(=O)n(C)c3)cc2OC)C1` [Compound I-146]: 7.48; for `COc1cc(S(=O)(=O)N2CCNCC2)c(OC)cc1-c1cc(C)c(=O)n(C)c1` [Compound I-147]: 6.90. For the molecule `COc1cc(-c2cc(C)c(=O)n(C)c2)ccc1S(=O)(=O)N1CCNCC1` [Compound I-148], the pIC50 was 6.84. The pIC50 values of the last two molecules are within 0.2 log units of each other. The value for `Cc1cc(-c2ccc(CN3CCNCC3)c(N(C)C)c2)cn(C)c1=O` [Compound I-149, 5-(3-Dimethylamino-4-piperazin-1-ylmethyl-phenyl)-1,3-dimethyl-1H-pyridin-2-one] was 6.80; that for `COc1cc(-c2cc(C)c(=O)n(C)c2)c(OC)cc1CN1CCNCC1` [Compound I-150] was 6.53. The value for `COc1cc(S(=O)(=O)NC2CNC2)c(OC)cc1-c1cn(C)c(=O)c(C)c1C` [Compound I-151] was 7.59. The value for `CNCCN(C)S(=O)(=O)c1cc(OC)c(-c2cn(C)c(=O)c(C)c2C)cc1OC` [Compound I-152] was 6.84; that for `COc1cc(-c2cc(C)c(=O)n(C)c2C)ccc1COC1CNC1` [Compound I-153] was 7.54; that for `COc1cc(S(=O)(=O)NC2CNC2)c(OC)cc1-c1cc(C)c(=O)n(C)c1C` [Compound I-154] was 7.42. For `CNCCN(C)S(=O)(=O)c1cc(OC)c(-c2cc(C)c(=O)n(C)c2C)cc1OC` [Compound I-155], the pIC50 was 6.89.

The molecule `COc1cc(-c2cc(C)c(=O)n(C)c2C)c(OC)cc1CN1CCNCC1` [Compound I-156] gave a pIC50 of 5.75. Compared with the last molecule, the pIC50 is 1.14 log units lower.

In turn, `CCc1cc(-c2cc(C)c(=O)n(C)c2)cc(OC)c1C(=O)N1CCNCC1` [Compound I-157, 5-[3-Ethyl-5-methoxy-4-(piperazine-1-carbonyl)-phenyl]-1,3-dimethyl-1H-pyridin-2-one] had a pIC50 of 7.05.

On to `COc1cc(-c2cc(C)c(=O)n(C)c2)cc(C)c1C(=O)N1CCNCC1` [Compound I-159], for which the pIC50 was 6.78.

In turn, `Cc1cc(C(=O)N2CCNCC2)ccc1-c1cc(C)c(=O)n(C)c1` [Compound I-163] had a pIC50 of 6.26. This pIC50 lies 0.52 log units lower than the previous one. The same measure for `COc1cc(-c2cc(I)c(=O)n(C)c2)ccc1C(=O)N1CCNCC1` [Compound I-164, 3-Iodo-5-[3-methoxy-4-(piperazine-1-carbonyl)-phenyl]-1-methyl-1H-pyridin-2-one]: 7.19; for `COc1cc(-c2cc(I)c(=O)n(C)c2)ccc1C(=O)N1CCN(C)CC1` [Compound I-166]: 6.64; for `COc1cc(-c2cn(C)c(=O)c(I)c2C)cc(OC)c1CN(C)C` [Compound I-167]: 7.39.

For `COc1cc(-c2cc(I)c(=O)n(C)c2C)cc(OC)c1CN(C)C` [Compound I-168], the negative-log IC50 (pIC50) was 7.40. The same measure for `Cc1cc(-c2ccc(C(=O)N3CCN(C)CC3)c(OC(F)(F)F)c2)cn(C)c1=O` [Compound I-177, 1,3-Dimethyl-5-[4-(4-methyl-piperazine-1-carbonyl)-3-trifluoromethoxy-phenyl]-1H-pyridin-2-one]: 5.88; for `COc1cc(-c2cc(C)c(=O)n(C)c2)ccc1CN1CC(Cl)C1` [Compound I-178, 5-[4-(3-Chloro-azetidin-1-ylmethyl)-3-methoxy-phenyl]-1,3-dimethyl-1H-pyridin-2-one]: 7.42. The value for `Cc1cc(-c2ccc(CN3CC(O)C3)cc2)cn(C)c1=O` [Compound I-179, 5-[4-(3-Hydroxy-azetidin-1-ylmethyl)-phenyl]-1,3-dimethyl-1H-pyridin-2-one] was 6.73; that for `Cc1cc(-c2ccc(CN3CCCC3)cc2)cn(C)c1=O` [Compound I-180] was 6.06; that for `CNCc1ccc(-c2cc(C)c(=O)n(C)c2)cc1` [Compound I-181] was 6.00. The value for `Cc1cc(-c2ccc(CN3CCCCC3)cc2)cn(C)c1=O` [Compound I-182] was 5.98. The molecule `Cc1cc(-c2ccc(CN3CC4CCC3C4)cc2)cn(C)c1=O` (stereo not drawn) [Compound I-184] gave a pIC50 of 5.88. The pIC50 values of the last two molecules are within 0.2 log units of each other. The value for `Cc1cc(-c2ccc(Cn3ccnc3)cc2)cn(C)c1=O` [Compound I-185] was 5.81.

Consider `Cc1cc(-c2cc(C)c(=O)n(C)c2)c(C)cc1CN1CCNCC1` [Compound I-186, 5-(2,5-Dimethyl-4-piperazin-1-ylmethyl-phenyl)-1,3-dimethyl-1H-pyridin-2-one], for which the pIC50 was 6.01.
